Common to all, as to assay: HTS ATP-utilizing enzyme assay, off-chip mobility-shift (Caliper HTS 250)
Common to all, as to assay type: biochemical
Conditions in all cases: test compound 10 μM, kinase listed = active (greater than six-sigma from the mean activity of inactive compounds)

Assay [1] has as its target MAPKAPK2 (Homo sapiens, UniProt P49137). Put shortly: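 Phosphorylation of a peptide substrate was quantified by Caliper mobility-shift separation of substrate and product after 2.5 h at 20-22 °C, with compounds tested at 10 μM. Inhibition was normalized to EDTA-quenched (100%) and DMSO (0%) controls; six-sigma thresholds flagged actives.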
Assay [2] deals with C-TAK1 (Homo sapiens, UniProt P27448). The essentials:
(§1)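 Inhibition is reported from a single 10 μM concentration. Kinase phosphorylates a peptide substrate over 2.5 hrs at 20° C. to 22° C. before EDTA termination. Potential hits are those beyond six-sigma statistical limits.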

The target in assay [3] is T1, CHEK1 (Homo sapiens, UniProt O14757).
T1 sequence (O14757 1-476): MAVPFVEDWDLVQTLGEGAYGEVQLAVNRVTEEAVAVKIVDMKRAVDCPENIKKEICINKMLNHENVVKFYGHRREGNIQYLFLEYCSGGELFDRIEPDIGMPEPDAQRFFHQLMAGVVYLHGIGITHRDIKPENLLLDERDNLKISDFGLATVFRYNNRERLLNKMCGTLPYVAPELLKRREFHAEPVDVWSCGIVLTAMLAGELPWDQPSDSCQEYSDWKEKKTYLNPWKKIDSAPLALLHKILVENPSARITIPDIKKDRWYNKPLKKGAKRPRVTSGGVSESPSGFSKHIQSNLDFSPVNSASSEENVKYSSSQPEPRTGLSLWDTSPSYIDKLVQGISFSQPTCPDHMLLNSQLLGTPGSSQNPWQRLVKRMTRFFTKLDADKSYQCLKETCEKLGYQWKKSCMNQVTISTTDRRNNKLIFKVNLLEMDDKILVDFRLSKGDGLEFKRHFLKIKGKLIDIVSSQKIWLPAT
Put shortly:
as §1

Sequence of C-TAK1 (P27448 whole entry): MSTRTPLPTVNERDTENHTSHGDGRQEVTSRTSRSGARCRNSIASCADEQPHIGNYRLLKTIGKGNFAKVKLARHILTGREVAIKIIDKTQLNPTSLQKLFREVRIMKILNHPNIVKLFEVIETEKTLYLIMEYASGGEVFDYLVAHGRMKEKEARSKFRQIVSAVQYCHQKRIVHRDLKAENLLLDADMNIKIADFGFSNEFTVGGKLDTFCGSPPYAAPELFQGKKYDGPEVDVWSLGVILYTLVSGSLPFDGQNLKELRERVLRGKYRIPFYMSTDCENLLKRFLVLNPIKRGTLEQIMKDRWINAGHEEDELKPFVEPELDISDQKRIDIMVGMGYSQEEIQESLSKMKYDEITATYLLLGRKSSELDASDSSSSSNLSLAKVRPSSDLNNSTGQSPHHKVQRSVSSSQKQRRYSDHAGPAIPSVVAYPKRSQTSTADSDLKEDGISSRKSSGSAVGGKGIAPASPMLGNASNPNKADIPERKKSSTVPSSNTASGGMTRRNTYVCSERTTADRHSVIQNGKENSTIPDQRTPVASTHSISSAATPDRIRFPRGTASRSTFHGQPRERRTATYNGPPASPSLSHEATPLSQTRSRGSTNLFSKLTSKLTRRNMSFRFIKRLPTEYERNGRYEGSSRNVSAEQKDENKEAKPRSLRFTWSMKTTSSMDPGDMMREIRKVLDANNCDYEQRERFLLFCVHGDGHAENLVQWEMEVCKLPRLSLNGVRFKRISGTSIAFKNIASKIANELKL
Sequence of MAPKAPK2 (P49137 whole entry): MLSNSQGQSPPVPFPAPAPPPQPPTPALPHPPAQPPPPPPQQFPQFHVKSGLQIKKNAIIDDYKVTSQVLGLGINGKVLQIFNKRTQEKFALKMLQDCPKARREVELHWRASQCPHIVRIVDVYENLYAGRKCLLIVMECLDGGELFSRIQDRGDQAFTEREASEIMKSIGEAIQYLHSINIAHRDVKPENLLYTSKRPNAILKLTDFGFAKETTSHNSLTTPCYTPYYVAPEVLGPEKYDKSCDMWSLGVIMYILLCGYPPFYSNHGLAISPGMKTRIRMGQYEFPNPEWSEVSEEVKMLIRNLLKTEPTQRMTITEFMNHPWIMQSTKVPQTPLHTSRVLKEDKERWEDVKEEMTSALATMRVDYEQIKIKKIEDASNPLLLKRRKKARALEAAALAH

Regarding `CN1CCN(c2ccc(Nc3ccnc4ccc(-c5ccc(O)cc5)cc34)cc2)CC1` [4-(4-(4-(4-methylpiperazin-1-yl)phenylamino)quinolin-6-yl)phenol], the Activity result in assay [1] is on record as “MAPKAPK2”.

On to `CN1CCN(c2ccc(Nc3ccnc4ccc(-c5ccc(F)cc5)cc34)cc2)CC1` [6-(4-fluorophenyl)-N-(4-(4-methylpiperazin-1-yl)phenyl)quinolin-4-amine], for which the Activity entry in assay [2] was “C-TAK1”; in assay [1], “MAPKAPK2”. Turning to `COc1ccc(-c2ccc3nccc(Nc4ccc(N5CCNCC5)cc4)c3c2)cc1` [6-(4-methoxyphenyl)-N-(4-(piperazin-1-yl)phenyl)quinolin-4-amine], the Activity result in assay [3] was “CHEK1”; in assay [1], “MAPKAPK2”. Turning to `COc1ccc(-c2ccc3nccc(N(C)c4ccc(N5CCN(C)CC5)cc4)c3c2)cc1` [6-(4-methoxyphenyl)-N-methyl-N-(4-(4-methylpiperazin-1-yl)phenyl)quinolin-4-amine], the Activity entry in assay [1] is “MAPKAPK2”. As for `c1ccc(-c2ccc3nccc(Nc4ccc(N5CCNCC5)cc4)c3c2)cc1` [6-phenyl-N-(4-(piperazin-1-yl)phenyl)quinolin-4-amine], the results for the Activity entry in assay [3] and in assay [1] were “CHEK1” and “MAPKAPK2”, respectively. `CN1CCN(c2ccc(Nc3ccnc4ccc(-c5cccc6ccccc56)cc34)cc2)CC1` [N-(4-(4-methylpiperazin-1-yl)phenyl)-6-(naphthalen-1-yl)quinolin-4-amine]: the results for the Activity result in assay [2] and in assay [1] were “C-TAK1” and “MAPKAPK2”, respectively.

For `CN1CCN(c2ccc(Nc3ccnc4ccc(-c5ccc6ccccc6c5)cc34)cc2)CC1` [N-(4-(4-methylpiperazin-1-yl)phenyl)-6-(naphthalen-2-yl)quinolin-4-amine], the Activity result was “CHEK1” in assay [3], “C-TAK1” in assay [2] and “MAPKAPK2” in assay [1]. For `Cc1ccccc1-c1ccc2nccc(Nc3ccc(N4CCN(C)CC4)cc3)c2c1` [N-(4-(4-methylpiperazin-1-yl)phenyl)-6-o-tolylquinolin-4-amine], the Activity entry in assay [1] was “MAPKAPK2”.
